Target: T1, cellular PARG (Homo sapiens, UniProt Q86W56)
T1 construct: endogenous in cells; host or cells: HeLa
Experiment: Nuclear PAR accumulation assay (immunofluorescence high-content imaging)
Type: cell-based
Conditions: HeLa cells, 1 hour compound treatment then MMS 50 μg/mL for an additional hour
Experimental: Compound IC50 values for inhibition of cellular PARG were determined using an immunofluorescence high-content imaging assay for nuclear PAR accumulation. HeLa cells were plated at 15,000 cells/well in a 96-well plate the day before compound treatment and then treated with varying concentrations of test compound and incubated for 1 hour at 37° C.+5% CO2. Following test compound treatment, methylmethane sulfonate (MMS) was added to a final concentration of 50 μg/mL and the cells were incubated for an additional hour. Following treatment, the cells were fixed with ice cold 95% methanol and the plates sealed and placed at −20° C. for 15 minutes. The cells were then washed once with phosphate buffered saline (PBS) and permeabilized with 0.1% Triton-X 100 for 20 minutes at room temperature. The cells were again washed once with PBS and incubated with an anti-poly-ADP ribose (PAR) monoclonal antibody (Millipore Part #AM80 clone 10H) diluted 1:1,000 in 5% fetal bovine serum +0.1% Tween-20+PBS overnight at 4° C. The cells were then washed three times with PBS before incubation with a fluorescently conjugated goat anti-mouse antibody (Invitrogen A32723) diluted 1:500 in 5% FBS+0.1% Tween-20+PBS for 1 hour at room temperature. The cells were again washed three times with PBS and the nuclei labeled by incubating with 1 μg/mL DAPI (4′,6-diamidino-2-phenylindole). Nuclear PAR accumulation was evaluated using high-content fluorescence microscopy. Four fields for each well were acquired at 20× magnification resulting in at least 1,000 cells analyzed per well. Using high-content software (CellReporterXpress) the nuclei were detected and segmented using the DAPI channel and the fluorescence intensity of the PAR-Alexa 488 channel was quantified within the nuclei regions. Both the average intensity per nucleus and percent PAR positive cells were quantified. Percent PAR positive cells were identified by having greater anti-PAR labeling above the threshold set with vehicle DMSO treated control cells. Percent inhibition of PARG by test compounds was calculated by normalizing the data to the 0.1% DMSO and reference compound control values, which represent 0% and 100% inhibition of enzymatic activity, respectively. Concentration-response-curves and IC50 values were generated using four parameter logistic curve fit software.

T1 sequence (Q86W56 whole entry): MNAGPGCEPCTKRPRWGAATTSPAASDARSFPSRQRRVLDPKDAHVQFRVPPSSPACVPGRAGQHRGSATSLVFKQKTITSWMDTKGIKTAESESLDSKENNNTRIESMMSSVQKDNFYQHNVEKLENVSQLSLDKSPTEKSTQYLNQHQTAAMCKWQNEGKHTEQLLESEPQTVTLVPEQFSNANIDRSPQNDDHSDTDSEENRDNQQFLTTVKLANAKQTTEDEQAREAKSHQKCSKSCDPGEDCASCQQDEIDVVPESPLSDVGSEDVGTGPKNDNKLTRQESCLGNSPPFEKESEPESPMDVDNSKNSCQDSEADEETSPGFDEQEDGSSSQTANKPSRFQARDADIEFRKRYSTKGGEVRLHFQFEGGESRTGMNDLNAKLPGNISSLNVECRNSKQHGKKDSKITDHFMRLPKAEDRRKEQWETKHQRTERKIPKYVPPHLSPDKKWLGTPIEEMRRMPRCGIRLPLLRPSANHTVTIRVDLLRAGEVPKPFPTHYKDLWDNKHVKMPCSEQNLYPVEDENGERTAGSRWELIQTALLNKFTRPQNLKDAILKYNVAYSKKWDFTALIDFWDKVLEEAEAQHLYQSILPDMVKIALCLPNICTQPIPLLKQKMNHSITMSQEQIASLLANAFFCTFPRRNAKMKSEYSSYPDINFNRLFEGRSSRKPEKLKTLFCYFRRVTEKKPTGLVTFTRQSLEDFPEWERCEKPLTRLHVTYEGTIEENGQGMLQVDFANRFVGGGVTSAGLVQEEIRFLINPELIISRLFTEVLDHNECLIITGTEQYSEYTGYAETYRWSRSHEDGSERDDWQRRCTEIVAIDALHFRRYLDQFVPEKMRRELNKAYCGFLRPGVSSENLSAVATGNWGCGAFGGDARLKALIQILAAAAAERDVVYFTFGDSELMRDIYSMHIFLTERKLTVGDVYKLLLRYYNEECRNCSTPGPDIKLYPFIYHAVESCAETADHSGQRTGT

IC50	SMILES
0.1 to 1 µM	CN1C(=O)c2cc(S(=O)(=O)NC3(C)CC3)ccc2N2C1=NCC2C1CC1 (stereo not shown) [Example 48, 1-cyclopropyl-4-methyl-N-(1-methylcyclopropyl)-5-oxo-1,2,4,5-tetrahydroimidazo[1,2-a]quinazoline-7-sulfonamide]
1 to 10 µM	CC(C)C1CN=C2N(C)C(=O)c3cc(S(=O)(=O)NC4(C)CC4)ccc3N21 (stereo not shown) [Example 49, 1-isopropyl-4-methyl-N-(1-methylcyclopropyl)-5-oxo-1,2,4,5-tetrahydroimidazo[1,2-a]quinazoline-7-sulfonamide]
0.1 to 1 µM	CCC1CN=C2N(C)C(=O)c3cc(S(=O)(=O)NC4(C)CC4)ccc3N21 (stereo not shown) [Example 50, 1-ethyl-4-methyl-N-(1-methylcyclopropyl)-5-oxo-1,2,4,5-tetrahydroimidazo[1,2-a]quinazoline-7-sulfonamide]
1 to 10 µM	C[C@@H]1CN=C2N(Cc3ccccc3)C(=O)c3cc(S(=O)(=O)NC4(C)CC4)ccc3N21 [Example 51, (R)-4-benzyl-1-methyl-N-(1-methylcyclopropyl)-5-oxo-1,2,4,5-tetrahydroimidazo[1,2-a]quinazoline-7-sulfonamide]
0.1 to 1 µM	C[C@@H]1CN=C2N(C)C(=O)c3cc(S(=O)(=O)NC4(C)CC4)ccc3N21 [Example 52, (R)-1,4-dimethyl-N-(1-methylcyclopropyl)-5-oxo-1,2,4,5-tetrahydroimidazo[1,2-a]quinazoline-7-sulfonamide]
0.1 to 1 µM	C[C@@H]1CN=C2N(Cc3cnn(CCN(C)C)c3)C(=O)c3cc(S(=O)(=O)NC4(C)CC4)ccc3N21 [Example 53, (R)-4-((1-(2-(dimethylamino)ethyl)-1H-pyrazol-4-yl)methyl)-1-methyl-N-(1-methylcyclopropyl)-5-oxo-1,2,4,5-tetrahydroimidazo[1,2-a]quinazoline-7-sulfonamide]
> 10 µM	C[C@@H]1CN=C2N(CC3COC3)C(=O)c3cc(S(=O)(=O)NC4(C)CC4)ccc3N21 [Example 54, (R)-1-methyl-N-(1-methylcyclopropyl)-4-(oxetan-3-ylmethyl)-5-oxo-1,2,4,5-tetrahydroimidazo[1,2-a]quinazoline-7-sulfonamide]
≤ 0.1 µM	C[C@@H]1CN=C2N(Cc3cn(C)nc3C(F)(F)F)C(=O)c3cc(S(=O)(=O)NC4(C)CC4)ccc3N21 [Example 55, (R)-1-methyl-4-((1-methyl-3-(trifluoromethyl)-1H-pyrazol-4-yl)methyl)-N-(1-methylcyclopropyl)-5-oxo-1,2,4,5-tetrahydroimidazo[1,2-a]quinazoline-7-sulfonamide]
≤ 0.1 µM	Cc1nnc(CN2C(=O)c3cc(S(=O)(=O)NC4(C)CC4)ccc3N3C2=NC[C@H]3C)s1 [Example 56, (R)-1-methyl-4-((5-methyl-1,3,4-thiadiazol-2-yl)methyl)-N-(1-methylcyclopropyl)-5-oxo-1,2,4,5-tetrahydroimidazo[1,2-a]quinazoline-7-sulfonamide]
≤ 0.1 µM	C[C@@H]1CN=C2N(Cc3cnn(C(F)F)c3)C(=O)c3cc(S(=O)(=O)NC4(C)CC4)ccc3N21 [Example 57, (R)-4-((1-(difluoromethyl)-1H-pyrazol-4-yl)methyl)-1-methyl-N-(1-methylcydopropyl)-5-oxo-1,2,4,5-tetrahydroimidazo[1,2-a]quinazoline-7-sulfonamide]
≤ 0.1 µM	C#CCN1C(=O)c2cc(S(=O)(=O)NC3(C)CC3)ccc2N2C1=NC[C@H]2C [Example 58, (R)-1-methyl-N-(1-methylcyclopropyl)-5-oxo-4-(prop-2-yn-1-yl)-1,2,4,5-tetrahydroimidazo[1,2-a]quinazoline-7-sulfonamide]
≤ 0.1 µM	CC#C[C@@H]1CN=C2N(Cc3cnn(C)c3)C(=O)c3cc(S(=O)(=O)NC4(C)CC4)ccc3N21 [Example 59, (R)-4-((1-methyl-1H-pyrazol-4-yl)methyl)-N-(1-methylcyclopropyl)-5-oxo-1-(prop-1-yn-1-yl)-1,2,4,5-tetrahydroimidazo[1,2-a]quinazoline-7-sulfonamide]
0.1 to 1 µM	CC#C[C@H]1CN=C2N(Cc3cnn(C)c3)C(=O)c3cc(S(=O)(=O)NC4(C)CC4)ccc3N21 [Example 60, (S)-4-((1-methyl-1H-pyrazol-4-yl)methyl)-N-(1-methylcyclopropyl)-5-oxo-1-(prop-1-yn-1-yl)-1,2,4,5-tetrahydroimidazo[1,2-a]quinazoline-7-sulfonamide]
≤ 0.1 µM	[2H]C([2H])(c1cnn(C)c1)N1C(=O)c2cc(S(=O)(=O)NC3(C)CC3)ccc2N2C1=NC[C@H]2C [Example 61, (R)-1-methyl-4-((1-methyl-1H-pyrazol-4-yl)methyl-d2)-N-(1-methylcyclopropyl)-5-oxo-1,2,4,5-tetrahydroimidazo[1,2-a]quinazoline-7-sulfonamide]
≤ 0.1 µM	[2H]C([2H])(c1c(C)noc1C)N1C(=O)c2cc(S(=O)(=O)NC3(C)CC3)ccc2N2C1=NC[C@H]2C [Example 62, (R)-4-((3,5-dimethylisoxazol-4-yl)methyl-d2)-1-methyl-N-(1-methylcyclopropyl)-5-oxo-1,2,4,5-tetrahydroimidazo[1,2-a]quinazoline-7-sulfonamide]
≤ 0.1 µM	[2H]C([2H])(c1cnc(C)s1)N1C(=O)c2cc(S(=O)(=O)NC3(C)CC3)ccc2N2C1=NC[C@H]2C [Example 63, (R)-1-methyl-N-(1-methylcyclopropyl)-4-((2-methylthiazol-5-yl)methyl-d2)-5-oxo-1,2,4,5-tetrahydroimidazo[1,2-a]quinazoline-7-sulfonamide]
≤ 0.1 µM	Cn1cc(CN2C(=O)c3cc(S(=O)(=O)NC4(C)CC4)ccc3N3CC(C)(C)N=C23)cn1 [Example 64, 2,2-dimethyl-4-((1-methyl-1H-pyrazol-4-yl)methyl)-N-(1-methylcyclopropyl)-5-oxo-1,2,4,5-tetrahydroimidazo[1,2-a]quinazoline-7-sulfonamide]
≤ 0.1 µM	Cn1cc(CN2C(=O)c3cc(S(=O)(=O)NC4(C)CC4)ccc3N3C2=NC[C@H]3C(F)(F)F)cn1 [Example 65, (S)-1-trifluoromethyl-4-((1-methyl-1H-pyrazol-4-yl)methyl)-N-(1-methylcyclopropyl)-5-oxo-1,2,4,5-tetrahydroimidazo[1,2-a]quinazoline-7-sulfonamide]
≤ 0.1 µM	C[C@@H]1CN=C2N(Cc3cnn(CC#N)c3)C(=O)c3cc(S(=O)(=O)NC4(C)CC4)ccc3N21 [Example 66, (R)-1-methyl-4-((1-cyanomethyl-1H-pyrazol-4-yl)methyl)-N-(1-methylcyclopropyl)-5-oxo-1,2,4,5-tetrahydroimidazo[1,2-a]quinazoline-7-sulfonamide]
≤ 0.1 µM	Cc1noc(C)c1CN1C(=O)c2cc(S(=O)(=O)NC3(C)CC3)ccc2N2C1=NC[C@H]2C(C)C [Example 67, (R)-4-((3,5-dimethylisoxazol-4-yl)methyl)-1-isopropyl-N-(1-methylcyclopropyl)-5-oxo-1,2,4,5-tetrahydroimidazo[1,2-a]quinazoline-7-sulfonamide]
1 to 10 µM	Cc1noc(C)c1CN1C(=O)c2cc(S(=O)(=O)NC3(C)CC3)ccc2N2C1=NC[C@@H]2C(C)C [Example 68, (S)-4-((3,5-dimethylisoxazol-4-yl)methyl)-1-isopropyl-N-(1-methylcyclopropyl)-5-oxo-1,2,4,5-tetrahydroimidazo[1,2-a]quinazoline-7-sulfonamide]
≤ 0.1 µM	Cc1noc(C)c1CN1C(=O)c2cc(S(=O)(=O)NC3(C)CC3)ccc2N2C1=NC[C@H]2C1CC1 [Example 69, (R)-1-cyclopropyl-4-((3,5-dimethylisoxazol-4-yl)methyl)-N-(1-methylcyclopropyl)-5-oxo-1,2,4,5-tetrahydroimidazo[1,2-a]quinazoline-7-sulfonamide]
0.1 to 1 µM	Cc1noc(C)c1CN1C(=O)c2cc(S(=O)(=O)NC3(C)CC3)ccc2N2C1=NC[C@@H]2C1CC1 [Example 70, (S)-1-cyclopropyl-4-((3,5-dimethylisoxazol-4-yl)methyl)-N-(1-methylcyclopropyl)-5-oxo-1,2,4,5-tetrahydroimidazo[1,2-a]quinazoline-7-sulfonamide]
≤ 0.1 µM	C#C[C@@H]1CN=C2N(Cc3c(C)noc3C)C(=O)c3cc(S(=O)(=O)NC4(C)CC4)ccc3N21 [Example 71, (R)-4-((3,5-dimethylisoxazol-4-yl)methyl)-1-ethynyl-N-(1-methylcyclopropyl)-5-oxo-1,2,4,5-tetrahydroimidazo[1,2-a]quinazoline-7-sulfonamide]
≤ 0.1 µM	C#C[C@H]1CN=C2N(Cc3c(C)noc3C)C(=O)c3cc(S(=O)(=O)NC4(C)CC4)ccc3N21 [Example 72, (S)-4-((3,5-dimethylisoxazol-4-yl)methyl)-1-ethynyl-N-(1-methylcyclopropyl)-5-oxo-1,2,4,5-tetrahydroimidazo[1,2-a]quinazoline-7-sulfonamide]

From US12435092B2, “Substituted imidazo[1,2-A]quinazolines as inhibitors of PARG” (858 Therapeutics, Inc., priority 2022, dated 2025)
